Source: the NIST ThermoML archive (doi:10.1016/j.fluid.2010.02.030)
Numbers after ± are expanded uncertainties.

Details: Liquid, Ebulliometric method (Recirculating still)

Compound | vapor or sublimation pressure (383.15 K) [kPa] | vapor or sublimation pressure (387.74 K) [kPa] | vapor or sublimation pressure (400.11 K) [kPa] | vapor or sublimation pressure (408.87 K) [kPa] | vapor or sublimation pressure (416.75 K) [kPa] | vapor or sublimation pressure (422.84 K) [kPa] | vapor or sublimation pressure (428.53 K) [kPa] | vapor or sublimation pressure (433.42 K) [kPa] | vapor or sublimation pressure (437.83 K) [kPa] | vapor or sublimation pressure (442.22 K) [kPa] | vapor or sublimation pressure (328.08 K) [kPa] | vapor or sublimation pressure (336.1 K) [kPa] | vapor or sublimation pressure (343.41 K) [kPa] | vapor or sublimation pressure (350.44 K) [kPa] | vapor or sublimation pressure (355.65 K) [kPa] | vapor or sublimation pressure (360.57 K) [kPa] | vapor or sublimation pressure (364.39 K) [kPa] | vapor or sublimation pressure (368.05 K) [kPa] | vapor or sublimation pressure (371.04 K) [kPa]
Cc1ccc(C)c(C)c1 [1,2,4-trimethylbenzene] | 16.9 ± 0.4 | 20.1 ± 0.4 | 30.3 ± 0.4 | 39.8 ± 0.4 | 50.3 ± 0.4 | 60 ± 0.4 | 70.3 ± 0.4 | 80.3 ± 0.4 | 90.4 ± 0.4 | 101.4 ± 0.4 |  |  |  |  |  |  |  |  | 
CCCCS [1-butanethiol] |  |  |  |  |  |  |  |  |  |  | 23.1 ± 0.4 | 31.4 ± 0.4 | 40.9 ± 0.4 | 52.1 ± 0.4 | 61.9 ± 0.4 | 72.6 ± 0.4 | 81.9 ± 0.4 | 91.6 ± 0.4 | 100.5 ± 0.5
